Laboratory results as given in patent US20020119891A1, “Integrated methods for control of aquatic weeds” (priority 2001, published 2002).
Values joined by “and” are separate entries in the source; they are usually repeats but may differ in a detail not shown here. Equal entries are not always repeated.

What was measured:
hydrilla [1] = assay: Pretreatment aquatic weed bioassay: apical tips grown in fluridone-treated medium, pigments of new growth assayed; assay type: in vivo, Hydrilla verticillata
From the text: (§1) As disclosed above, fluridone treatments of the invention are integrated with assays to determine the efficacy of fluridone on the local plant population in the body of water under treatment, and desirably also with assays to determine the concentration of fluridone existing during the treatment program. For example, in the present invention, an aquatic weed bioassay can be used to determine the pre-treatment susceptibility of a target plant population to fluridone. Such an assay may for instance involve the collection of meristematic stem tissue or vegetative propagules at selected sites within a body of water to be treated. The sites of collection may be logged, for instance using coordinates defined by the global positioning satellite (GPS) system. […]
(§2) At the completion of the growth period, all new growth from the plants can be excised from the original plant tissue. […] After the extraction, the extracted sample is assayed to quantitate the levels of pigments, for example chlorophyll and/or β-carotene. […] For example, spectrophotometric absorbance measurements for chlorophyll may be taken at 645 and/or 662 nm; for β-carotene may be taken at 445 nm; and for phytoene may be taken at 287 and/or 347 nm. These measured values may be compared to control data (e.g. including curves generated using samples of known concentration) to determine the level of these substances in the samples. […]

Eurasian watermilfoil [2] = assay: Pretreatment aquatic weed bioassay: sampled plants exposed to fluridone, pigments assayed; assay type: in vivo
From the text: as §1, §2

hydrilla [3] = assay: Field treatment of a water body with plant biochemical and water residue monitoring; assay type: in vivo, Hydrilla verticillata
From the text: (§3) Preferred methods of the present invention also involve plant biochemical testing conducted during the treatment. Thus, during the period in which a fluridone level is being maintained in the body of water under treatment, aquatic weed samples are obtained from the water body. This may involve, for example, collection of growing apical meristems from selected sites in the water body, preferably along with matched water samples from the same sites. Again, the sample sites can be logged using GPS or another suitable system to assist in future sampling and reference.
(§4) The aquatic weed plant samples can then be assessed to determine the effect of the maintained level of fluridone on the plants. To this end, the samples are first thoroughly washed and weighed. In a typical treatment, 6 to 12 samples per site will be collected. Similar to the discussions above, standard methods are then used to assay the level of pigments such as B-carotene, chlorophyll, and/or other relevant substances such as phytoene, in the tissue. […] The levels can be measured as discussed above using any suitable method such as spectrophotometry or fluorometry and appropriate standard curves. The measured values can then be utilized to determine whether any additional applications of fluridone or other adjustments are necessary to bring concentrations to levels that will be phytotoxic to the local aquatic weed population.
The biochemical assays discussed above, taken during treatment, are preferably used in conjunction with assays of water samples simultaneously taken, to determine the concentration of fluridone in the water body. […] The combination of measured fluridone concentration along with measured effect on plant health provides a particularly powerful method for the management of aquatic weeds in water bodies.
The Spring Creek Arm of Lake Seminole (5000 acres) was treated in May 2000 using a drip system that added fluridone based on flow rates in the river. […] Plant response to the treatment was monitored and threshold water concentrations were determined. […]

Eurasian watermilfoil [4] = assay: Field treatment of a lake with fluridone; assay type: in vivo
From the text: as §3
as §4, with “population. […]” for “population.”

aquatic weeds = settings: cited from earlier work

1-methyl-3phenyl-5-3-(trifluoromethyl)phenyl-4(1H)-pyridinone [fluridone]
threshold concentration of fluridone (pigment concentrations in new growth) (hydrilla [1]; Example 1: hydrilla from 2500-acre Florida lake, 0, 3, 6, 12, 24 ppb, 12-day growth, no enhancement at 12 and 24 ppb): 6 ppb | lowest rate hydrilla is susceptible to (pretreatment assay) (hydrilla [1]; Spring Creek Arm of Lake Seminole hydrilla): 5 ppb | threshold concentration of fluridone (Eurasian watermilfoil [2]; Example 3: Eurasian watermilfoil from Wolverine Lake, Michigan, 0, 3, 6, 9, 12, 15 ppb): 6 ppb and 9 ppb | plant response below threshold (Eurasian watermilfoil [2]; Wolverine Lake Eurasian watermilfoil, 3 ppb): rapid recovery of the plants | weed control result of earlier treatment (hydrilla [3]; Lake Eva, 1999 treatment): very poor control | lake concentration relative to control threshold (pigment assay) (hydrilla [3]; Lake Eva, Central Florida, treated April 2000, target rate 15 ppb): below thresholds required to provide control | plant response at downstream sites (plant sampling) (hydrilla [3]; Spring Creek Arm of Lake Seminole, drip system treatment, May 2000): lack of impact at several downstream sites | weed control result of field treatment (Eurasian watermilfoil [4]; Lake McKinney, Minnesota, treated late summer 1999, assessed end of following summer): could no longer be found in the lake | weed control result of previous field applications (Eurasian watermilfoil [4]; Wolverine Lake, two applications at 5 and 6 ppb in the last 3 years): unsatisfactory results | susceptible concentration, less sensitive species (aquatic weeds; other species, only higher concentrations): 150 ppb | susceptible concentration, more sensitive species (aquatic weeds; some species, as low as): about 5 ppb
